Common to all, as to experiment: growth of human tumour cells (NCI), 48 h
In assay [1] the test system is A549 NSCLC.
Assay [2] relates to ACHN renal.
The subject of assay [3] is CCRF-CEM leukemia.
For assay [4], the system named is LOX IMVI melanoma.
The test system of assay [5] is OVCAR-8 ovarian.
For assay [6], the system named is SK-MEL-28 melanoma.
Assay [7] concerns SK-MEL-5 melanoma.
Assay [8] concerns UACC-257 melanoma.
Assay [9] concerns UO-31 renal.
Assay [10] has as its system SNB-75 CNS.

Several values for one entry are separate records, joined by “and”; a condition that tells them apart may be missing. Equal entries are not always repeated.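 Compound exposure: 48 hours, 5 concentrations, 96-well plates. GI50: concentration for 50% inhibition of growth. TGI: concentration producing complete growth inhibition.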

For `COc1cc(/C=N/N=C(\N)NO)ccc1O`, the TGI in assay [1], in assay [2], in assay [3], in assay [4], in [5] and in assay [6] was over 100 µM throughout. Besides, the TGI in assay [7], in assay [8] and in [9] was over 100 µM in each case.

For the molecule `CCN(CC)CCCC(C)Nc1c2ccc(Cl)cc2nc2cc(Cl)ccc12` (stereo unspecified), the TGI worked out at 18.1 µM in assay [1]; 7.47 µM in [3]; 6.94 µM in assay [4]; 19.3 µM in [5]; 15.8 µM in [6]; 10 µM in assay [7]. Moreover, the TGI is 22.7 µM in assay [10], 8.87 µM in [8] and 11.5 µM in assay [9].

In the case of `CC(C)C(=O)Nc1ccc(-c2nc(-c3cccc(OCCN4CCOCC4)c3)c(-c3ccnc(Br)c3)[nH]2)cc1`, the GI50 in [1] is 3.73 µM; in [2] it was 3.87 µM; in [3] it was 3.27 µM; in [4], 1.7 µM; in assay [5], 4.16 µM; in [6] it was 1.98 µM. Further, the GI50 in assay [7] is 1.79 µM; in [10], 0.647 µM; in assay [8] it was 2.37 µM; in assay [9], 2.36 µM. The TGI in [1] was over 100 µM; in assay [2], 94.1 µM; in assay [3] it was over 100 µM; in [4], 3.57 µM; in assay [5], over 100 µM; in assay [6] it was 5.02 µM. In addition, the TGI is 3.25 µM in assay [7], 4.28 µM in assay [10], 5.68 µM in [8] and 7.23 µM in assay [9].

As to `OC(c1ccccc1)C1CC2C=CC1C2` (stereo unspecified), the TGI in assay [1], in assay [2], in assay [3], in assay [4], in assay [5] and in assay [6] was over 100 µM each time. Also, the TGI in assay [7], in [10], in [8] and in assay [9] was over 100 µM throughout.

As to `CN(CC(=O)O)CC(=O)O`, the TGI in assay [1], in assay [2], in assay [3], in [4], in assay [5] and in assay [6] was over 100 µM in each case. Besides, the TGI in assay [7], in assay [10], in [8] and in assay [9] was over 100 µM each time.

For the molecule `COc1ccc(N2C(=O)C(=O)N(C)C2=O)c2ccccc12`, the TGI in assay [1], in [2], in assay [3], in assay [4], in assay [5] and in [6] was over 10 µM in each case. The TGI in [7], in [10] and in assay [9] was over 10 µM throughout.

Regarding `COC1=CC(=O)c2c(c(COC(C)=O)cn2C)C1=O`, the TGI in assay [1] amounted to 0.509 µM; in assay [2] it was 0.173 µM; in [3] it was 0.71 µM; in assay [4] it was 0.431 µM; in assay [5] it was 0.313 µM; in assay [6] it was 0.516 µM. For the same molecule, the TGI in [7] is 0.39 µM; in assay [10] it was 0.88 µM; in assay [8] it was 1.43 µM; in [9], 0.551 µM.

On to `CC[C@@]1(O)C(=O)OCc2c1cc1n(c2=O)Cc2cc3c(CN(C)C)c(O)ccc3nc2-1`, for which the GI50 was 0.0545 µM and 0.08 µM in assay [1]; < 0.01 µM and 0.00474 µM and 0.0188 µM in assay [2]; < 0.01 µM and 0.0032 µM in assay [3]; 0.299 µM and 1.36 µM in assay [6]; 0.0197 µM and 0.0191 µM and 0.0448 µM in assay [7]; 0.106 µM and 0.0677 µM and 0.297 µM in assay [8]. In [9], the GI50 is 0.0169 µM and 0.118 µM and 0.0299 µM. The TGI is 362 nM [middle of 4 runs] in assay [4]; 0.273 µM and 1.89 µM and 0.607 µM in assay [9].

For `CC1(CO)C(O)CCC2(C)C1C(O)CC1CC3CC12CCC3(O)CO` (stereo unspecified), the TGI in [1], in assay [3], in assay [4], in assay [5], in assay [6] and in assay [7] was over 225 µM throughout. In addition, the TGI in assay [10], in assay [8] and in [9] was over 225 µM throughout.

Turning to `Clc1ccc(C2CC(c3cccc(Nc4ccncc4)c3)=NN2c2ccccc2)cc1` (stereo unspecified), the GI50 in assay [2] was 1.66 µM; in assay [3], 1.94 µM; in assay [4] it was 1.64 µM; in assay [6], 1.77 µM; in assay [7], 1.82 µM; in assay [10] it was 1.37 µM. The GI50 in assay [8] was 1.8 µM; in [9], 1.47 µM. In addition, the TGI was 3.02 µM in assay [2]; 5.41 µM in assay [3]; 3.06 µM in assay [4]; 3.24 µM in [6]; 3.26 µM in assay [7]; 2.79 µM in assay [10]. Besides, the TGI in [8] was determined as 3.83 µM; in assay [9], 2.79 µM.

On to `O=c1ccc2c(Cl)cccc2o1`, for which the TGI in assay [1], in [2], in assay [3], in assay [4], in assay [5] and in assay [6] was over 100 µM in each case. Moreover, the TGI in assay [7], in assay [10], in [8] and in assay [9] was over 100 µM each time.

For the molecule `CNCCCn1c2c(c3ccc(Cl)cc3c1=O)C(=O)c1cc(OC)cnc1-2`, the GI50 is 0.224 µM in assay [2]; 1.18 µM in assay [5]; 1.62 µM in assay [6]; 1.12 µM in [7]; 0.263 µM in assay [10]; 2.24 µM in assay [8]. Also, the GI50 in assay [9] is 1.08 µM. Moreover, the TGI in assay [2] turned out to be 1.58 µM; in assay [5], 3.5 µM; in assay [6] it was 3.15 µM; in assay [7], 2.49 µM; in assay [10], 1.78 µM; in assay [8], 11.1 µM. Further, in assay [9], the TGI worked out at 2.64 µM.

As to `CC(C)NC(=O)OCc1nnn2c1CCC2`, the TGI in assay [1], in assay [2], in assay [3], in [4], in assay [5] and in assay [6] was over 100 µM each time. Besides, the TGI in assay [7], in assay [10], in [8] and in assay [9] was over 100 µM each time.

As for `CSC1=C(SC)C(=O)c2cn(C)c(=O)cc2C1=O`, the TGI is 36.9 µM in [1]; 3.32 µM in assay [2]; 0.826 µM in [3]; 3.91 µM in assay [4]; over 70.9 µM in assay [5]; 6.69 µM in [6]. Moreover, the TGI worked out at 3.15 µM in assay [7], 22.5 µM in assay [10], 7.05 µM in [8] and 3.13 µM in [9].

Consider `CC(C(=O)NCCNC(=O)CCCC(=O)N(C)O)C(=O)NCCNC(=O)CCCC(=O)N(C)O`, for which the TGI in [1], in [2], in assay [3], in assay [4], in assay [5] and in assay [6] was over 100 µM throughout. The TGI in assay [7], in assay [10], in [8] and in assay [9] was over 100 µM in each case.

On to `CC(C)=CC1C(COC(=O)c2ccccc2Cl)C1(C)C` (stereo unspecified), for which the TGI was over 100 µM in [1]; over 100 µM in assay [2]; over 100 µM in [3]; 38.9 µM in assay [4]; over 100 µM in assay [5]; over 100 µM in assay [6]. The results for the TGI in [7], in assay [8] and in assay [9] were 65.3 µM, over 100 µM and over 100 µM, respectively.

`C1=Nc2ccccc2Cn2nncc21`: the TGI in assay [1], in assay [2], in assay [3], in [4], in [5] and in assay [6] was over 100 µM in each case. This molecule also gave a TGI in [9] of over 100 µM.

These data come from PubChem BioAssay (NCI).
